What was measured:
[1] = target: T1, KRAS G12C/SOS/c-Raf complex (Homo sapiens, UniProt P01116, G12C); test: KRAS G12C/SOS/c-Raf complex formation inhibitory action (TR-FRET); format: biochemical; conditions: one hour at room temperature, read-out: IC50 (KRAS G12C/SOS/c-Raf complex formation inhibition)
T1 construct: Biotinylated AviTag-KRAS G12C (amino acid region 1-185, GDP)
In short: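 Biotin-AviTag KRAS G12C (1-185, GDP-bound) was mixed with compound (4,000 to 4 nM stock dilutions), SOS (564-1049), GST-c-Raf (51-131) and GTP in pH 7.4 HEPES/NaCl/MgCl2/Tween buffer for 1 h at room temperature. Complex formation was read by TR-FRET with Eu-streptavidin and ULight-anti-GST (ex 337 nm, em 620/665 nm).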

pERK in NCI-H1373 tumor = test: Intratumoral pERK inhibitory action in NCI-H1373 tumor of nude mice (TR-FRET); format: in vivo, mouse; conditions: Mus musculus, 6 h, tumor six hours after administration
Description: Evaluation of Intratumoral pERK Inhibitory Action
The phosphorylation amount of ERK in tumor sample after administration of test compound was examined by using pERK measurement kit (Advanced ERK phospho-T202/Y204 kit, Cisbio co., Ltd) through a TR-FRET method.
2.0 to 5.0×10^6 NCI-H1373 cells were prepared by using a solution in which an equivalent amount of Matrigel (Becton. Dickinson and Company) was added to PBS, were injected subcutaneously in a volume of 100 μL and planted to male nude mice of 4-5 weeks old (CAnN.Cg-Foxn 1 nu/CrlCrlj (nu/nu), Charles River Laboratories Japan, Inc.), and then the male nude mice were used for the test 15 to 26 days later. The test was conducted with three mice in a solvent group and three mice in a test compound administration group, and the test compounds were prepared by using a solvent such that the dosage thereof is as indicated in Table 4. The test compound was administered subcutaneously or orally. For subcutaneous administration, physiological saline supplemented with equimolar hydrochloric acid was used as a solvent. For oral administration, 6% 2-hydroxypropyl-β-cyclodextrin (Sigma-Aldrich Co. LLC) was used as a solvent. Six hours after the administration, a tumor was excised from a cervical dislocated mouse under isoflurane anesthesia, and a part thereof was put into a 2 mL Eppendorf tube and frozen using liquid nitrogen. The tumor sample was stored in a deep freezer at −80° C. until it was subjected to the pERK measurement test.
500 μL of lysis buffer 1 (Phospholysis buffer [Cisbio Co., Ltd], Complete EDTA free [Roche Diagnostics K.K.], Phosphatase inhibitor cocktail 2 [Sigma-Aldrich Co. LLC]) and one bead (5 mm YTZ ball [Nikkato Corp.]) was added to the tumor sample, and crushed (frequency 25/s for 3 minutes) by using Tissue Lyser II (QIAGEN GmbH). The whole amount was transferred to a new tube and centrifuged (20,400×g for 10 minutes, 4° C.) by using a micro amount high speed cooling centrifuge so as to obtain a tumor lysate which is a supernatant. Protein quantification of tumor lysate was performed by using a protein quantification kit (Pierce 660 nm Protein Assay Kit [Thermo Fisher Scientific Inc.]), and each sample was diluted by using lysis buffer 2 (Phosphorysis buffer [Cisbio Co., Ltd], Blocking Agent [attached to pERK measurement kit]) such that the amount thereof is to be a final concentration of 0.5 μg/μL.
Each of p-ERK1/2 Cryptate antibody and p-ERK1/2 d2 antibody (attached to pERK measurement kit) was diluted 20-fold with each detection buffer (attached to pERK measurement kit), and thereby a mixed solution of these two types of antibodies was prepared. A mixed solution of antibody was added to a 384 well plate at a volume of 4 μL/well. Further, tumor lysate diluted to 0.5 μg/μL was added at a volume of 16 μL/well. After standing at room temperature in a wet box for about 17 hours, the fluorescence intensity at 620 nm and 665 nm was measured under the condition of excitation wavelength of 337 nm by using EnVision 2103 Multilabel Reader (PerkinElmer Co., Ltd.).

NCI-H1373 cells = test: Anchorage-independent cell proliferation inhibitory action, NCI-H1373 spheroid three-dimensional culture; format: cell-based, Human; conditions: Homo sapiens, NCI-H1373, 144 h, NCI-H1373 spheroid, six days, CellTiter Glo; read-out: IC50 (anchorage-independent cell proliferation inhibition)
In short: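 KRAS G12C NCI-H1373 cells were grown as spheroids in low-attachment U-bottom wells and treated the next day with compound, six points from 1,000 to 0.3 nM final. After six days at 37°C, viability was read by CellTiter-Glo luminescence. IC50 was fitted by Sigmoid-Emax regression, with DMSO set as 0% and cell-free medium as 100% inhibition.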

[2] = test system: ERK phosphorylation (Thr 202/Tyr 204) in NCI-H1373 cells; test: ERK phosphorylation inhibitory action in NCI-H1373 (Cell ELISA); format: cell-based, Human; conditions: Homo sapiens, NCI-H1373, 2 h, NCI-H1373 cells, cultured for 2 hours, 100% = 1 μM Trametinib; read-out: IC50 (ERK phosphorylation inhibition)
In short: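 KRAS G12C NCI-H1373 cells (2×10^4/well) were treated with compound (six points, 1,000–0.3 nM final) for 2 h. Phospho-ERK Thr202/Tyr204 was measured by in-cell ELISA with an IRDye 800CW secondary antibody. IC50 was fitted by sigmoid-Emax regression against DMSO (0%) and 1 μM trametinib (100%).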

T1 sequence (P01116 1-185 isoform P01116-2 G12C, one chain of several): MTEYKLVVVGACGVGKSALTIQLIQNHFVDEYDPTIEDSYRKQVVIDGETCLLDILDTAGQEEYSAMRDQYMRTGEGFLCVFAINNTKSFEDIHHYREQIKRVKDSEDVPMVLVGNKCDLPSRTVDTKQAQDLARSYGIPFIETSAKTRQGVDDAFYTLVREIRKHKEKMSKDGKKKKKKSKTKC

Compound | IC50 [1] | IC50 (NCI-H1373 cells) | IC50 [2] | inhibition at 3 mg/kg (pERK in NCI-H1373 tumor; NCI-H1373, sc, Subcutaneous administration, 3 mg/kg, read-out: pERK inhibition (%)) | inhibition at 10 mg/kg (pERK in NCI-H1373 tumor; NCI-H1373, po, Oral administration, 10 mg/kg)
C=CC(=O)N1CC2(CCN(c3nc(OC4CCN(CC(C)(C)O)CC4)nc4c(OCC(F)(F)F)c(-c5c(C)ccc6[nH]ncc56)c(C=C)cc34)CC2)C1 [Ex 31] | 45 nM | 8.3 nM |  |  | 51%
C=CC(=O)N1CC2(CCN(c3nc(OC4CCN(S(C)(=O)=O)CC4)nc4c(OCC(F)(F)F)c(-c5c(C)ccc6[nH]ncc56)c(C=C)cc34)CC2)C1 [Example 86] | 72 nM | 37 nM | 12 nM |  | 
C=CC(=O)N1CC2(CCN(c3nc(OC4CCN(C(=O)OC)CC4)nc4c(OCC(F)(F)F)c(-c5c(C)ccc6[nH]ncc56)c(C=C)cc34)CC2)C1 [Example 88] | 148 nM | 90 nM | 19 nM |  | 
C=CC(=O)N1CC2(CCN(c3nc(N4CCN(C)C(CC)C4)nc4c(OCC(F)(F)F)c(-c5c(C)ccc6[nH]ncc56)c(C=C)cc34)CC2)C1 (centres unmarked) [Example 89] | 53 nM | 40 nM | 19 nM |  | 
C=CC(=O)N1CC2(CCN(c3nc(OC4CCN(C(C)=O)CC4)nc4c(OCC(F)(F)F)c(-c5c(C)ccc6[nH]ncc56)c(C=C)cc34)CC2)C1 [Example 90] | 55 nM | 53 nM | 22 nM |  | 

The next compounds have a lower IC50 [1] than those just listed; values first:

IC50 [1] | IC50 (NCI-H1373 cells) | IC50 [2] | Compound | inhibition at 3 mg/kg (pERK in NCI-H1373 tumor; NCI-H1373, sc, Subcutaneous administration, 3 mg/kg, read-out: pERK inhibition (%)) | inhibition at 10 mg/kg (pERK in NCI-H1373 tumor; NCI-H1373, po, Oral administration, 10 mg/kg)
31 nM |  |  | C=CC(=O)N1CC2(CCN(c3nc(OC4CCN(C)CC4)nc4c(OCC)c(-c5c(C)ccc6[nH]ncc56)c(C=C)cc34)CC2)C1 [Ex 5] | 72% | 
39 nM | 35 nM | 18 nM | C=CC(=O)N1CC2(CCN(c3nc(OC4CCN(CCOC)CC4)nc4c(OCC(F)(F)F)c(-c5cccc6[nH]ncc56)c(C5CC5)cc34)CC2)C1 [Example 87] |  | 
42 nM | 39 nM | 22 nM | C=CC(=O)N1CC2(CCN(c3nc(CC4CCN(CCOC)CC4)nc4c(OCC(F)(F)F)c(-c5c(C)ccc6[nH]ncc56)c(C=C)cc34)CC2)C1 [Example 91] |  | 
37 nM | 32 nM | 22 nM | C=CC(=O)N1CC2(CCN(c3nc(OC4CCN(CC)CC4)nc4c(OC)c(-c5c(Cl)ccc6[nH]ncc56)c(C=C)cc34)CC2)C1 [Reference example 1, reference compound] |  | 
35 nM | 22 nM | 17 nM | C=CC(=O)N1CC2(CCN(c3nc(OC[C@@H]4CCCN4C)nc4c(OC)c(-c5c(C)ccc6[nH]ncc56)c(C=C)cc34)CC2)C1 [Reference example 2, reference compound] |  | 

Source: patent US10774082B2, “Quinazoline compound” (Astellas Pharma Inc., priority 2017, dated 2020)
